The solubility is how much of the substance goes into solution per volume. A low value points to a poorly soluble substance.

Structures are written as SMILES. “Also recorded” adds a separate entry of the source. Where a name gives a salt, the structure may show the parent alone.

This is an account of results in patent US10759798B2, “ABT-199 addition salt and crystal form thereof, preparation method thereof, and pharmaceutical composition thereof” (Hangzhou SoliPharma Co., Ltd, priority 2016, dated 2020).

Series [1] can be described thus: Storage stability at room temperature and 10%-90% RH for 4 months. In kind it is physicochemical. Particulars: room temperature.
Series [2] can be described thus: Water solubility test (Comparative Example 4). To be noted: 25° C. In kind it is physicochemical. Here is the method:
The ABT-199 dihydrochloride Form 1 prepared by the invention and the known ABT-199 hydrochloride Form II prepared according to the Preparation Example 2 were tested for water solubility. In specific, 10 mg sample was placed in a 20 mL glass bottle, and added with 10 mL deionized water at 25° C. to form a suspension, which was stirred for 24 hours at 25° C., filtered, and detected by HPLC, and the solubility of the sample in water was calculated.

A short description of series [3]: Slurry competition experiment for crystalline form stability (Comparative Example 3). Type of series: physicochemical. To be noted: for crystalline form in slurry competition experiment: water-saturated ethyl acetate, 3 days, room temperature or 40° C. Here is the method: The ABT-199 monohydrochloride Form C prepared by the invention and the known ABT-199 hydrochloride Form II prepared by Preparation Example 2 were used for the competition experiment to test the crystalline form stability. In specific, 20 mg ABT-199 Form II and 20 mg ABT-199 monohydrochloride Form C samples were added to the same water-saturated ethyl acetate to form slurries, which were stirred for 3 days at room temperature or at 40° C., then the samples were analyzed by XRPD to investigate their crystalline form stability.

Series [4] in a line: Crystalline stability at 130° C. for 1 day by XRPD (Comparative Example 2). Type of series: physicochemical. Particulars: for crystalline form after being stored at 130° C. for 1 day: XRPD. How it is done: The ABT-199 monohydrochloride Form B prepared by the present invention was compared with the known ABT-199 hydrochloride Form II prepared according to the Preparation Example 2. In specific, 30 mg samples were placed at 130° C. for 1 day, and XRPD was carried out to investigate the crystalline stability.

Series [5] is described as follows: Water solubility test (Comparative Example 1). Type of series: physicochemical. Here is the method: The ABT-199 monohydrochloride Form A prepared in the present invention was compared with the known ABT-199 hydrochloride Form II prepared according to the Preparation Example 2 in a water solubility test. In specific, 10 mg sample was placed in a 50 mL glass bottle, and added with 10 mL deionized water dropwisely at 25° C. to form a suspension. The suspension was treated with ultrasonics until the suspension was stirred for 24 hours and the sample was almost dissolved, the resultant solution was filtered and subject to HPLC detection, and the sample solubility in water was calculated.

For series [6] the following is noted: cited from earlier work.
Where [7] appears, read: slurry of Form II and Form C in water-saturated ethyl acetate, XRPD.

In the case of `CC1(C)CCC(CN2CCN(c3ccc(C(=O)NS(=O)(=O)c4ccc(NCC5CCOCC5)c([N+](=O)[O-])c4)c(Oc4cnc5[nH]ccc5c4)c3)CC2)=C(c2ccc(Cl)cc2)C1` [ABT-199 dihydrochloride Form 1], the “appearance, XRPD pattern and melting point after storage” value (“appearance … after storage” for short) in series [1] (listed as Form 1) is reported as “remains unchanged”. For the same molecule, in series [2] (thermodynamic from solid, deionized water, stirred 24 hours, HPLC), the solubility at 24 h is around 50 µg/mL. The “solubility in water compared with known ABT-199 hydrochloride Form II” value in series [2] is “higher solubility”; in series [2] (listed as Form 1), “higher”.

Regarding `CC1(C)CCC(CN2CCN(c3ccc(C(=O)NS(=O)(=O)c4ccc(NCC5CCOCC5)c([N+](=O)[O-])c4)c(Oc4cnc5[nH]ccc5c4)c3)CC2)=C(c2ccc(Cl)cc2)C1.Cl` [ABT-199 hydrochloride Form II, reference compound], the solubility result was “About 20 μg/mL” in series [2] (deionized water, stirred 24 hours, HPLC) and “About 20 μg/mL” in series [5] (deionized water, 25° C., 24 hours, HPLC). Further, the “crystalline form after stirring at 40° C. for 3 days” value in series [3] (setting [7]) is reported as “Convered to Form C”. Further, the “crystalline form in slurry competition experiment” value is given as “changed to Form C” in series [3] and “converted to Form C” in series [3] (listed as ABT-199 monohydrochloride Form II). In addition, the “crystalline form after being stored at 130° C. for 1 day” value in series [4] (130° C., 1 day, listed as ABT-199 monohydrochloride Form II) is “changes; also recorded: Phase transition occurred”. Moreover, the “stability at high temperature (in words)” value in series [4] (high temperature) is recorded as “poor stability at high temperature”. Also, the “solubility in water (in words)” value in series [5] (water) is “low solubility in water”.

Turning to `CC1(C)CCC(CN2CCN(c3ccc(C(=O)NS(=O)(=O)c4ccc(NCC5CCOCC5)c([N+](=O)[O-])c4)c(Oc4cnc5[nH]ccc5c4)c3)CC2)=C(c2ccc(Cl)cc2)C1` [ABT-199 hydrochloride Form I], in series [6], the “stability when exposed to air” value is “easily converted to ABT-199 hydrochloride Form II”.

For `CC1(C)CCC(CN2CCN(c3ccc(C(=O)NS(=O)(=O)c4ccc(NCC5CCOCC5)c([N+](=O)[O-])c4)c(Oc4cnc5[nH]ccc5c4)c3)CC2)=C(c2ccc(Cl)cc2)C1` [ABT-199 monohydrochloride Form A], the “appearance … after storage” value in series [1] (listed as Form A) was “unchanged”. This molecule also had a solubility at 24 h in series [5] (thermodynamic from solid, deionized water, 25° C., 24 hours, HPLC) of around 40 µg/mL. The “solubility in water compared with known ABT-199 hydrochloride Form II” value in series [5] (water, 25° C.) was “higher solubility”.

With `CC1(C)CCC(CN2CCN(c3ccc(C(=O)NS(=O)(=O)c4ccc(NCC5CCOCC5)c([N+](=O)[O-])c4)c(Oc4cnc5[nH]ccc5c4)c3)CC2)=C(c2ccc(Cl)cc2)C1` [ABT-199 monohydrochloride Form B], in series [1] (listed as Form B), the “appearance … after storage” value is on record as “remains unchanged”. Further, in series [4] (130° C., 1 day), the “high-temperature stability compared with known ABT-199 hydrochloride Form II” value was “better high-temperature-stability”. Moreover, the “crystalline form after being stored at 130° C. for 1 day” value in series [4] (130° C., 1 day) is reported as “Form B”; in series [4] (130° C., 1 day, listed as Form B), “does not change”.

As for `CC1(C)CCC(CN2CCN(c3ccc(C(=O)NS(=O)(=O)c4ccc(NCC5CCOCC5)c([N+](=O)[O-])c4)c(Oc4cnc5[nH]ccc5c4)c3)CC2)=C(c2ccc(Cl)cc2)C1` [ABT-199 monohydrochloride Form C], the “appearance … after storage” value in series [1] (listed as Form C) is given as “remains unchanged”. Further, the “crystalline form after stirring at 40° C. for 3 days” value in series [3] (setting [7]) is “Form C”. Besides, the “crystalline form after stirring at room temperature for 3 days” value in series [3] (slurry of Form II and Form C in water-saturated ethyl acetate, room temperature, XRPD) was “Form C”. Further, the “crystalline form in slurry competition experiment” value in series [3] is reported as “remains unchanged”.
